Assay results as given in ChEMBL document CHEMBL1121735, “Synthesis and adrenoceptor affinity of some highly polar beta-substituted catecholamines” (J Med Chem, 1981).

What was measured:
Adrenergic receptor beta = Adrenergic receptor beta (Rattus norvegicus, UniProt P18090+P10608+P26255); assay: Binding affinity against Beta adrenergic receptor using [3H]dihydroalprenolol radioligand in rat brain homogenate; type: tissue-based
[1] = molecular target: Adrenergic receptor alpha; assay: Binding affinity against Alpha adrenergic receptor using [3H]dihydroergocryptine radioligand in rat brain homogenate; type: tissue-based

SMILES | IC50 (Adrenergic receptor beta) [M l-1] | IC50 [1] [M l-1]
CC(C)NCC(c1ccc(O)c(O)c1)S(=O)(=O)O (racemic) | 9.1e-6 | 0.000033
NCC(c1ccc(O)c(O)c1)S(=O)(=O)O (racemic) | 0.00013 | 3.6e-6
CNCC(c1ccc(O)c(O)c1)S(=O)(=O)O (racemic) | 0.00011 | 0.00001
